These molecules were tested on vascular cGMP (assay: vasorelaxant activity measured as increase in vascular cGMP in rat aorta after i.v. push, before and after 18 hr continuous i.v. infusion). Conditions: after 18 hr continuous in vivo administration.
Assay type: in vivo, male Sprague-Dawley rats
Method: Representative for the new compounds, the vasorelaxant activities (measured as the ability of the tested drug to induce an increase in vascular cGMP) of the example compounds 1 to 6 were determined and compared to activity of nitroglycerin under the same experimental conditions following single and sustained exposure of rats to the compound.
For this purpose the compound to be tested was administered, in each case, to 8 male Sprague-Dawley rats (300-400 g) before and after an 18 hr continuous intravenous infusion of the compound. […] After drug administration (i.v. push), the rat was sacrificed, the aorta immediately removed and processed for cGMP measurement as has been described in detail by us. All of the tested new compounds were utilized in nitroglycerin equimolar doses, either before of after the “tolerance” induction period.
The following table summarizes the results obtained following administration of either nitroglycerin or the tested compounds before and after an 18 hr continuous exposure to the same compound: […]

Molecule | tolerance to the cGMP-inducing activity
O=[N+]([O-])OCC(CO[N+](=O)[O-])O[N+](=O)[O-] [Nitroglycerin, nitroglycerin, reference compound] | developed early

Same assay, conditions: rat aorta, i.v. push, after 18 hr continuous i.v. infusion of the same compound; nitroglycerin equimolar doses

Molecule | cGMP Post-infusion [pmol/g tissue]
O=[N+]([O-])OCC1(CO[N+](=O)[O-])CCSSC1 [Compound 3, 1,1-Diemethanol-dinitrate-3,4-dithiane] | 174 ± 16
1,1′-Bisthiomethyl-3,4-dihydroxy-cyclohexane-dinitrate ester [Compound 4] | 169 ± 13
1,2-Dihydroxy-dinitrate-6,8-dithiane [Compound 6] | 179 ± 12
O=[N+]([O-])OCCCCCC1CCSS1 (centres unmarked) [Compound 5, Thioctyl Alcohol Nitrate Ester] | 113 ± 11
O=[N+]([O-])OCC(CO[N+](=O)[O-])O[N+](=O)[O-] [Nitroglycerin, nitroglycerin, reference compound] | 68 ± 9

Same assay, conditions: rat aorta, i.v. push, before 18 hr continuous i.v. infusion; nitroglycerin equimolar doses

Molecule | cGMP Pre-infusion [pmol/g tissue]
O=[N+]([O-])OCC1(CO[N+](=O)[O-])CCSSC1 [Compound 3, 1,1-Diemethanol-dinitrate-3,4-dithiane] | 171 ± 14
1,1′-Bisthiomethyl-3,4-dihydroxy-cyclohexane-dinitrate ester [Compound 4] | 149 ± 11
1,2-Dihydroxy-dinitrate-6,8-dithiane [Compound 6] | 193 ± 17
O=[N+]([O-])OCCCCCC1CCSS1 (centres unmarked) [Compound 5, Thioctyl Alcohol Nitrate Ester] | 123 ± 13
O=[N+]([O-])OCC(CO[N+](=O)[O-])O[N+](=O)[O-] [Nitroglycerin, nitroglycerin, reference compound] | 153 ± 13
